Assay results as given in PubChem BioAssay AID248 (DTP/NCI, 2004).
Several values for one entry are separate records, joined by “and”; a condition that tells them apart may be missing. Identical values can stand only once. Toxic doses and inconclusive results are not listed. No stated cut-off is given here; in the data, active means T/C of 150% or more; inactive means T/C below 125%.

System: L1210 leukemia ip in BDF1 mice, survival T/C
Experiment: NCI In Vivo Anticancer Drug Screen. Data for tumor model L1210 Leukemia (intraperitoneal) in B6D2F1 (BDF1) mice
Details: endpoint: mean survival time, higher = longer survival
In short: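 Transplantable tumor model; survival measured in treated vs vehicle control mice. Value = treated/control.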

[1] = dose: 100.0 mg/kg/injection, schedule: Q01DX009 (ip), vehicle: saline with Tween-80
[2] = dose: 100.0 mg/kg/injection, schedule: Q04DX003 (ip), vehicle: saline with Tween-80
[3] = dose: 200.0 mg/kg/injection, schedule: Q01DX009 (ip), vehicle: saline with Tween-80
[4] = dose: 200.0 mg/kg/injection, schedule: Q04DX003 (ip), vehicle: saline with Tween-80
[5] = dose: 400.0 mg/kg/injection, schedule: Q04DX003 (ip), vehicle: saline with Tween-80
[6] = dose: 100.0 mg/kg/injection, schedule: Q01DX009 (ip), vehicle: saline
[7] = dose: 100.0 mg/kg/injection, schedule: Q04DX003 (ip), vehicle: saline
[8] = dose: 200.0 mg/kg/injection, schedule: Q01DX009 (ip), vehicle: saline
[9] = dose: 200.0 mg/kg/injection, schedule: Q04DX003 (ip), vehicle: saline
[10] = dose: 400.0 mg/kg/injection, schedule: Q04DX003 (ip), vehicle: saline

Measured: T/C

Ic1ccc(-n2cccc2)cc1
inactive: dose: 100.0 mg/kg/injection, schedule: Q01DX001 (ip), vehicle: steriod suspending solution 95 % of control | dose: 200.0 mg/kg/injection, schedule: Q01DX001 (ip), vehicle: steriod suspending solution 101 % of control | dose: 400.0 mg/kg/injection, schedule: Q01DX001 (ip), vehicle: steriod suspending solution 92 % of control

COc1ccc(C[C@H]2NC[C@H](O)[C@H]2OC(C)=O)cc1
inactive: dose: 25.0 mg/kg/injection, schedule: Q01DX Z (ip), vehicle: saline 109 % of control | dose: 50.0 mg/kg/injection, schedule: Q01DX Z (ip), vehicle: saline 102 % of control | dose: 100.0 mg/kg/injection, schedule: Q01DX Z (ip), vehicle: saline 109 % of control | dose: 200.0 mg/kg/injection, schedule: Q01DX Z (ip), vehicle: saline 92 % of control and 107 % of control

O=[N+]([O-])c1ccc(OCc2ccc(S(=O)(=O)Oc3cccnc3)cc2)c(Cl)c1
inactive: dose: 100.0 mg/kg/injection, schedule: Q01DX001 (ip), vehicle: Klucel (hydroxypropylcellulose) (HPC) 94 % of control | dose: 200.0 mg/kg/injection, schedule: Q01DX001 (ip), vehicle: Klucel (hydroxypropylcellulose) (HPC) 98 % of control | dose: 400.0 mg/kg/injection, schedule: Q01DX001 (ip), vehicle: Klucel (hydroxypropylcellulose) (HPC) 89 % of control

O=S(=O)(NC1CCCC2C=CC=CC21)c1ccccc1 (configuration not stated)
inactive: [1] 96 % of control | [2] 93 % of control | [3] 102 % of control | [4] 92 % of control | dose: 400.0 mg/kg/injection, schedule: Q01DX009 (ip), vehicle: saline with Tween-80 88 % of control | [5] 95 % of control

O=S(=O)(O)c1cc(O)c2ccccc2c1
inactive: [6] 90 % of control | [7] 109 % of control | [8] 90 % of control | [9] 109 % of control | dose: 400.0 mg/kg/injection, schedule: Q01DX009 (ip), vehicle: saline 95 % of control | [10] 109 % of control

O=C(CCNC(=O)OCc1ccccc1)NCC(=O)OCc1ccccc1
inactive: [2] 103 % of control | [4] 97 % of control | [5] 92 % of control

CSCCC1NC(=O)C(C(C)=Nc2ccccc2)=C1O (configuration not stated)
inactive: dose: 50.0 mg/kg/injection, schedule: Q01DX001 (ip), vehicle: carboxymethylcellulose (CMC) 101 % of control | dose: 100.0 mg/kg/injection, schedule: Q01DX001 (ip), vehicle: carboxymethylcellulose (CMC) 109 % of control | dose: 200.0 mg/kg/injection, schedule: Q01DX001 (ip), vehicle: carboxymethylcellulose (CMC) 104 % of control | dose: 400.0 mg/kg/injection, schedule: Q01DX001 (ip), vehicle: carboxymethylcellulose (CMC) 104 % of control

CC1CC(=O)CC(C)(C)N1 (configuration not stated)
inactive: dose: 100.0 mg/kg/injection, schedule: Q01DX001 (ip), vehicle: saline 105 % of control | dose: 200.0 mg/kg/injection, schedule: Q01DX001 (ip), vehicle: saline 98 % of control | dose: 400.0 mg/kg/injection, schedule: Q01DX001 (ip), vehicle: saline 94 % of control

NC(N)=Nc1ccccc1
inactive: dose: 50.0 mg/kg/injection, schedule: Q01DX009 (ip), vehicle: saline with Tween-80 107 % of control | [1] 101 % of control | [7] 101 % of control | [3] 104 % of control | [9] 115 % of control

CC(C)(C)C(=O)CC(=O)C(C)(C)C.CC(C)(C)C(=O)CC(=O)C(C)(C)C.CC(C)(C)C(=O)CC(=O)C(C)(C)C.CC(C)(C)C(=O)CC(=O)C(C)(C)C.[Zr]
inactive: dose: 100.0 mg/kg/injection, schedule: Q01DX009 (ip), vehicle: Klucel (hydroxypropylcellulose) (HPC) 96 % of control | dose: 100.0 mg/kg/injection, schedule: Q04DX003 (ip), vehicle: Klucel (hydroxypropylcellulose) (HPC) 94 % of control | dose: 200.0 mg/kg/injection, schedule: Q01DX009 (ip), vehicle: Klucel (hydroxypropylcellulose) (HPC) 97 % of control | dose: 200.0 mg/kg/injection, schedule: Q04DX003 (ip), vehicle: Klucel (hydroxypropylcellulose) (HPC) 89 % of control | dose: 400.0 mg/kg/injection, schedule: Q01DX009 (ip), vehicle: Klucel (hydroxypropylcellulose) (HPC) 96 % of control | dose: 400.0 mg/kg/injection, schedule: Q04DX003 (ip), vehicle: Klucel (hydroxypropylcellulose) (HPC) 101 % of control

Cc1cc2c(cc1C)/C(=N\O)CCCC2
inactive: [2] 110 % of control | [4] 92 % of control | [5] 94 % of control

O=C1CC(=O)Nc2ccccc2N1
inactive: dose: 50.0 mg/kg/injection, schedule: Q01DX009 (ip), vehicle: saline 86 % of control | [6] 86 % of control | [7] 98 % of control | [8] 96 % of control | [9] 101 % of control | [10] 101 % of control
